Laboratory results published in patent US20260248787A9, “MEDICAMENT FOR TREATING CANCER COMPRISING OPTICALLY ACTIVE AZABICYCLO RING DERIVATIVE” (Sumitomo Pharma Co., Ltd., priority 2023, published 2026).

Assay: Phase 1/2 first-in-human clinical study, safety evaluation (DLT, TEAE, SAE)
Method: Arm A: Patients without azole antifungal treatment within 7 days (or 21 days for isavuconazole) of first dose of the present compound
Arm B: Patients receiving posaconazole, voriconazole, or fluconazole antifungal prophylaxis at enrollment
The safety of each dose level also was evaluated by the SRC, which was comprised of all investigators participating in the study and selected Sponsor study team members. The dose recommended by the BLRM method was treated as guidance and was integrated with a clinical assessment of toxicity information and review of other available data, including safety, PK, pharmacodynamic, and laboratory data.
When the Dose Limiting Toxicity (DLT) evaluation for each cohort was completed, the SRC determined a next dose level based on the DLT and other available data, including safety, PK, pharmacodynamic, and laboratory data with reference to the Bayesian Logistic Regression Model (BLRM) recommendation.
Dose escalation decisions were made after all patients in a dose level cohort have at least completed Cycle 1. All available data were presented along with the BLRM predictions for toxicity probabilities at the potential next dose levels. The SRC then determined the dose(s) for the next cohort(s).

In the case of `C=C1C[C@@H]2CC[C@H]1[C@@H](C(=O)N1CCC3(CC1)CN(c1ncncc1Oc1ccc(F)cc1C(=O)N(C(C)C)C(C)C)C3)N2` [the present compound, 5-fluoro-2-[(4-{7-[(1S,3S,4R)-5-methylidene-2-azabicyclo[2.2.2]octane-3-carbonyl]-2,7-diazaspiro[3.5]nonan-2-yl}pyrimidin-5-yl)oxy]-N,N-di(propan-2-yl)benzamide], the “TEAE: Infections and Infestations” value (Arm A N=14, ≥Grade 3) is reported as 6 (42.9) n (%), the “TEAE: Investigations” value (Arm A N=14, ≥Grade 3) is reported as 4 (28.6) n (%) and the “TEAE: Metabolism and nutrition disorders” value (Arm A N=14, ≥Grade 3) is reported as 1 (7.1) n (%). The “TEAE: Musculoskeletal and connective tissue disorders” value (Arm A N=14, ≥Grade 3) was 0 n (%), the “TEAE: Nausea” value (Arm A N=14, ≥Grade 3) was 0 n (%) and the “TEAE: Nervous System Disorders” value (Arm A N=14, ≥Grade 3) was 2 (14.3) n (%). The “TEAE: Oedema peripheral” value (Arm A N=14, ≥Grade 3) was 0 n (%), the “TEAE: Pain in extremity” value (Arm A N=14, ≥Grade 3) was 0 n (%) and the “TEAE: Platelet count decreased” value (Arm A N=14, ≥Grade 3) was 1 (7.1) n (%). For the same compound, the “TEAE: Pneumonia” value (Arm A N=14, ≥Grade 3) was 2 (14.3) n (%), the “TEAE: Pruritus” value (Arm A N=14, ≥Grade 3) was 0 n (%) and the “TEAE: Pyrexia” value (Arm A N=14, ≥Grade 3) was 0 n (%). The “TEAE: Respiratory, thoracic and mediastinal disorders” value (Arm A N=14, ≥Grade 3) was 2 (14.3) n (%), the “TEAE: Sepsis” value (Arm A N=14, ≥Grade 3) was 2 (14.3) n (%) and the “TEAE: Skin and subcutaneous tissue disorders” value (Arm A N=14, ≥Grade 3) was 0 n (%). The “TEAE: Stomatitis” value (Arm A N=14, ≥Grade 3) was 0 n (%), the “TEAE: Vomiting” value (Arm A N=14, ≥Grade 3) was 0 n (%) and the “related TEAE: Aspartate aminotransferase increased” value (Arm A N=14, ≥Grade 3) was 0 n (%). The “related TEAE: Blood and lymphatic system disorders” value (Arm A N=14, ≥Grade 3) was 0 n (%), the “related TEAE: Decreased appetite” value (Arm A N=14, ≥Grade 3) was 0 n (%) and the “related TEAE: Differentiation syndrome” value (Arm A N=14, ≥Grade 3) was 1 (7.1) n (%). For the same compound, the “related TEAE: Gastrointestinal disorders” value (Arm A N=14, ≥Grade 3) was 0 n (%), the “related TEAE: General disorders and administration site conditions” value (Arm A N=14, ≥Grade 3) was 0 n (%) and the “related TEAE: Headache” value (Arm A N=14, ≥Grade 3) was 0 n (%). For the same compound, the “related TEAE: Hypertriglyceridaemia” value (Arm A N=14, ≥Grade 3) was 0 n (%), the “related TEAE: Hyperuricaemia” value (Arm A N=14, ≥Grade 3) was 0 n (%) and the “related TEAE: Increased appetite” value (Arm A N=14, ≥Grade 3) was 0 n (%). The “related TEAE: Investigations” value (Arm A N=14, ≥Grade 3) was 0 n (%), the “related TEAE: Leukocytosis” value (Arm A N=14, ≥Grade 3) was 0 n (%) and the “related TEAE: Metabolism and nutrition disorders” value (Arm A N=14, ≥Grade 3) was 0 n (%). For the same compound, the “related TEAE: Nausea” value (Arm A N=14, ≥Grade 3) was 0 n (%), the “related TEAE: Neoplasms benign, malignant and unspecified (incl cysts and polyps)” value (Arm A N=14, ≥Grade 3) was 1 (7.1) n (%) and the “related TEAE: Nervous system disorders” value (Arm A N=14, ≥Grade 3) was 0 n (%). For the same compound, the “related TEAE: Thirst” value (Arm A N=14, ≥Grade 3) was 0 n (%), the “related TEAE: Vomiting” value (Arm A N=14, ≥Grade 3) was 0 n (%) and the “Patients with Any TEAE” value (Arm B N=10, Any Grade) was 10 (100.0) n (%). The “TEAE: Alanine aminotransferase increased” value (Arm B N=10, Any Grade) was 2 (20.0) n (%), the “TEAE: Anaemia” value (Arm B N=10, Any Grade) was 1 (10.0) n (%) and the “TEAE: Aspartate aminotransferase increased” value (Arm B N=10, Any Grade) was 2 (20.0) n (%). The “TEAE: Blood and lymphatic system disorders” value (Arm B N=10, Any Grade) was 3 (30.0) n (%), the “TEAE: Constipation” value (Arm B N=10, Any Grade) was 1 (10.0) n (%) and the “TEAE: Decreased appetite” value (Arm B N=10, Any Grade) was 0 n (%). The “TEAE: Disease progression” value (Arm B N=10, Any Grade) was 2 (20.0) n (%), the “TEAE: Dyspnoea” value (Arm B N=10, Any Grade) was 1 (10.0) n (%) and the “TEAE: Epistaxis” value (Arm B N=10, Any Grade) was 2 (20.0) n (%). The “TEAE: Fatigue” value (Arm B N=10, Any Grade) was 2 (20.0) n (%), the “TEAE: Gastrointestinal disorders” value (Arm B N=10, Any Grade) was 6 (60.0) n (%) and the “TEAE: General disorders and administration site disorders” value (Arm B N=10, Any Grade) was 3 (30.0) n (%). The “TEAE: Headache” value (Arm B N=10, Any Grade) was 1 (20.0) n (%), the “TEAE: Hemorrhoids” value (Arm B N=10, Any Grade) was 2 (20.0) n (%) and the “TEAE: Hypertriglyceridaemia” value (Arm B N=10, Any Grade) was 2 (20.0) n (%). The “TEAE: Hypoalbuminaemia” value (Arm B N=10, Any Grade) was 0 n (%), the “TEAE: Hypocalcaemia” value (Arm B N=10, Any Grade) was 1 (10.0) n (%) and the “TEAE: Hypokalaemia” value (Arm B N=10, Any Grade) was 3 (30.0) n (%). For the same compound, the “TEAE: Hypomagnaesemia” value (Arm B N=10, Any Grade) was 0 n (%), the “TEAE: Hyponatraemia” value (Arm B N=10, Any Grade) was 0 n (%) and the “TEAE: Infections and Infestations” value (Arm B N=10, Any Grade) was 6 (60.0) n (%). For the same compound, the “TEAE: Investigations” value (Arm B N=10, Any Grade) was 3 (30.0) n (%), the “TEAE: Metabolism and nutrition disorders” value (Arm B N=10, Any Grade) was 5 (50.0) n (%) and the “TEAE: Musculoskeletal and connective tissue disorders” value (Arm B N=10, Any Grade) was 2 (20.0) n (%). The “TEAE: Nausea” value (Arm B N=10, Any Grade) was 3 (30.0) n (%), the “TEAE: Nervous System Disorders” value (Arm B N=10, Any Grade) was 2 (20.0) n (%) and the “TEAE: Oedema peripheral” value (Arm B N=10, Any Grade) was 0 n (%). For the same compound, the “TEAE: Pain in extremity” value (Arm B N=10, Any Grade) was 1 (10.0) n (%), the “TEAE: Platelet count decreased” value (Arm B N=10, Any Grade) was 0 n (%) and the “TEAE: Pneumonia” value (Arm B N=10, Any Grade) was 2 (20.0) n (%). For the same compound, the “TEAE: Pruritus” value (Arm B N=10, Any Grade) was 0 n (%), the “TEAE: Pyrexia” value (Arm B N=10, Any Grade) was 0 n (%) and the “TEAE: Respiratory, thoracic and mediastinal disorders” value (Arm B N=10, Any Grade) was 3 (30.0) n (%). The “TEAE: Sepsis” value (Arm B N=10, Any Grade) was 2 (20.0) n (%), the “TEAE: Skin and subcutaneous tissue disorders” value (Arm B N=10, Any Grade) was 1 (10.0) n (%) and the “TEAE: Stomatitis” value (Arm B N=10, Any Grade) was 2 (20.0) n (%). For the same compound, the “TEAE: Vomiting” value (Arm B N=10, Any Grade) was 1 (10.0) n (%), the “related TEAE: Aspartate aminotransferase increased” value (Arm B N=10, Any Grade) was 1 (10.0) n (%) and the “related TEAE: Blood and lymphatic system disorders” value (Arm B N=10, Any Grade) was 1 (10.0) n (%). For the same compound, the “related TEAE: Decreased appetite” value (Arm B N=10, Any Grade) was 0 n (%), the “related TEAE: Differentiation syndrome” value (Arm B N=10, Any Grade) was 0 n (%) and the “related TEAE: Gastrointestinal disorders” value (Arm B N=10, Any Grade) was 1 (10.0) n (%). The “related TEAE: General disorders and administration site conditions” value (Arm B N=10, Any Grade) was 0 n (%), the “related TEAE: Headache” value (Arm B N=10, Any Grade) was 0 n (%) and the “related TEAE: Hypertriglyceridaemia” value (Arm B N=10, Any Grade) was 1 (10.0) n (%). The “related TEAE: Hyperuricaemia” value (Arm B N=10, Any Grade) was 0 n (%), the “related TEAE: Increased appetite” value (Arm B N=10, Any Grade) was 0 n (%) and the “related TEAE: Investigations” value (Arm B N=10, Any Grade) was 1 (10.0) n (%). The “related TEAE: Leukocytosis” value (Arm B N=10, Any Grade) was 1 (10.0) n (%), the “related TEAE: Metabolism and nutrition disorders” value (Arm B N=10, Any Grade) was 1 (10.0) n (%) and the “related TEAE: Nausea” value (Arm B N=10, Any Grade) was 1 (10.0) n (%). For the same compound, the “related TEAE: Neoplasms benign, malignant and unspecified (incl cysts and polyps)” value (Arm B N=10, Any Grade) was 0 n (%), the “related TEAE: Nervous system disorders” value (Arm B N=10, Any Grade) was 0 n (%) and the “related TEAE: Thirst” value (Arm B N=10, Any Grade) was 0 n (%). The “related TEAE: Vomiting” value (Arm B N=10, Any Grade) was 1 (10.0) n (%), the “Patients with Any TEAE” value (Arm B N=10, ≥Grade 3) was 8 (80.0) n (%) and the “TEAE: Alanine aminotransferase increased” value (Arm B N=10, ≥Grade 3) was 0 n (%). For the same compound, the “TEAE: Anaemia” value (Arm B N=10, ≥Grade 3) was 0 n (%), the “TEAE: Aspartate aminotransferase increased” value (Arm B N=10, ≥Grade 3) was 1 (10.0) n (%) and the “TEAE: Blood and lymphatic system disorders” value (Arm B N=10, ≥Grade 3) was 3 (30.0) n (%). For the same compound, the “TEAE: Constipation” value (Arm B N=10, ≥Grade 3) was 0 n (%) and the “TEAE: Decreased appetite” value (Arm B N=10, ≥Grade 3) was 0 n (%).
